# Experimental data as given in US20150343016A1, “CHEMICAL ENTITIES AND THERAPEUTIC USES THEREOF” (The Regents of the University of Colorado, a body corporate, priority 2010, published 2015).
# System: HN31 Head and Neck Cancer cell line
# Assay: MTT assay, Bouvardin with ionizing radiation, HN31 (treated on the same day)
# Format: cell-based, human
# Settings: HN31 cells
# Description: “Combination Index” computation. Combination Indices were calculated using CalcuSyn software (Biosoft), which uses the method of Chou and Talalay. This method first computes drug-induced effect using the Hill Equation: where E is the measured effect; C is the drug concentration; Emax is the full range of drug effect, usually at or near 100%; IC50 is the drug concentration producing the median effect of 50%; and n is the curve shape parameter describing the steepness of the concentration-effect relationship. The Chou and Talalay method then linearizes the Hill Equation by logarithmic transformation as: where fu is the fraction of cells left unaffected after drug exposure, fa is the fraction of cells affected by the exposure, C is the drug concentration used, Cm is the concentration to achieve the median effect, and n is the curve shape parameter. Cm and n are equivalent to IC50 and n, respectively, in the Hill Equation. The values of n (obtained from the slope), nlog(Cm) (obtained from the absolute value of the intercept), and, therefore, Cm are obtained by plotting log(fu−1−1) versus log(C). These numbers are then used to compute the Combination Index (CI) according to the formula: CI=(D)1/(Dx)1+(D)2/(Dx)2 (26). (Dx)1 and (Dx)2 are the doses required to achieve a given effect level for each treatment, i.e. a specified value of Fraction Affected or Fa. (D)1 and (D)2 are the doses of each treatment in a given combination which gives the same Fa.
# The growth inhibitory effects of Bouvardin with ionizing radiation (IR) were evaluated using a modified tetrazolium salt (MTT) assay. In the MTT assay, 1,000 to 2,000 viable cells were plated in 100 uL of growth medium in 96-well plates (Corning, Ithaca, N.Y.). Following an overnight incubation, drug was added in varying concentrations and the plates were irradiated on the same day (co-treatment) or 24 hr later (pre-treatment) and incubated for 6 to 7 days. The tetrazolium salt was added at a concentration of 0.4 mg/mL to each well following the 6- to 7-day treatment. The plates were incubated with the salt for 4 hours at 37° C. At 4 hours, the medium was aspirated off, leaving the dark blue formazan product at the bottom of the wells. The reduced MTT product was solubilized by adding […] of 0.2 N HCl in 75% isopropanol, 23% MilliQ water to each well. Thorough mixing was done using a Titertek multichannel pipetman. The absorbency of each well was measured using an automated plate reader (Molecular Devices, Sunnyvale, Calif.). All experiments were done in triplicate.
# MTT assays were used to determine the effect of Bouvardin (concentrations in uM) in combination with ionizing radiation (in Gy, X-axis). FIG. 14 depicts CI values for Bouvardin and radiation on 3 cell lines. Combination Index data from 3 different Head and Neck Cancer cell lines are shown. Black dashed lines represent a CI value of 1. CI values below 1 indicate synergy. 1586 and UM-SCC19 were pre-treated whereas HN31 was treated on the same day.
structure (smiles),measurement,setting,value
"COc1ccc(C[C@H]2C(=O)N[C@H](C)C(=O)N(C)[C@@H]3C(=O)N(C)[C@@H](Cc4ccc(O)c(c4)Oc4ccc(cc4)[C@H]3O)C(=O)N[C@@H](C)C(=O)N[C@H](C)C(=O)N2C)cc1 (stereo in doubt) [Bouvardin, bouvardin]",Combination Index,Bouvardin 0.001 uM + 1 Gy IR,4.673
same,Fraction Affected,Bouvardin 0.001 uM + 1 Gy IR,0.165
same,Combination Index,Bouvardin 0.001 uM + 2 Gy IR,1.605
same,Fraction Affected,Bouvardin 0.001 uM + 2 Gy IR,0.292
same,Combination Index,Bouvardin 0.001 uM + 4 Gy IR,0.989
same,Fraction Affected,Bouvardin 0.001 uM + 4 Gy IR,0.478
same,Combination Index,Bouvardin 0.003 uM + 1 Gy IR,1.405
same,Fraction Affected,Bouvardin 0.003 uM + 1 Gy IR,0.362
same,Combination Index,Bouvardin 0.003 uM + 2 Gy IR,0.877
same,Fraction Affected,Bouvardin 0.003 uM + 2 Gy IR,0.463
same,Combination Index,Bouvardin 0.003 uM + 4 Gy IR,0.93
same,Fraction Affected,Bouvardin 0.003 uM + 4 Gy IR,0.535
same,Combination Index,Bouvardin 0.006 uM + 1 Gy IR,0.462
same,Fraction Affected,Bouvardin 0.006 uM + 1 Gy IR,0.574
same,Combination Index,Bouvardin 0.006 uM + 2 Gy IR,0.517
same,Fraction Affected,Bouvardin 0.006 uM + 2 Gy IR,0.602
same,Combination Index,Bouvardin 0.006 uM + 4 Gy IR,1.005
same,Fraction Affected,Bouvardin 0.006 uM + 4 Gy IR,0.559
same,Combination Index,Bouvardin 0.01 uM + 1 Gy IR,0.401
same,Fraction Affected,Bouvardin 0.01 uM + 1 Gy IR,0.731
same,Combination Index,Bouvardin 0.01 uM + 2 Gy IR,0.419
same,Fraction Affected,Bouvardin 0.01 uM + 2 Gy IR,0.747
same,Combination Index,Bouvardin 0.01 uM + 4 Gy IR,0.657
same,Fraction Affected,Bouvardin 0.01 uM + 4 Gy IR,0.73
same,Combination Index,Bouvardin 0.03 uM + 1 Gy IR,0.565
same,Fraction Affected,Bouvardin 0.03 uM + 1 Gy IR,0.753
same,Combination Index,Bouvardin 0.03 uM + 2 Gy IR,0.471
same,Fraction Affected,Bouvardin 0.03 uM + 2 Gy IR,0.782
same,Combination Index,Bouvardin 0.03 uM + 4 Gy IR,1.099
same,Fraction Affected,Bouvardin 0.03 uM + 4 Gy IR,0.717
same,Combination Index,Bouvardin 0.06 uM + 1 Gy IR,0.663
same,Fraction Affected,Bouvardin 0.06 uM + 1 Gy IR,0.778
same,Combination Index,Bouvardin 0.06 uM + 2 Gy IR,0.673
same,Fraction Affected,Bouvardin 0.06 uM + 2 Gy IR,0.785
same,Combination Index,Bouvardin 0.06 uM + 4 Gy IR,1.086
same,Fraction Affected,Bouvardin 0.06 uM + 4 Gy IR,0.756
same,Combination Index,Bouvardin 0.1 uM + 1 Gy IR,0.97
same,Fraction Affected,Bouvardin 0.1 uM + 1 Gy IR,0.825
same,Combination Index,Bouvardin 0.1 uM + 2 Gy IR,1.673
same,Fraction Affected,Bouvardin 0.1 uM + 2 Gy IR,0.789
same,Combination Index,Bouvardin 0.1 uM + 4 Gy IR,1.914
same,Fraction Affected,Bouvardin 0.1 uM + 4 Gy IR,0.784
same,Combination Index,Bouvardin 0.3 uM + 1 Gy IR,1.563
same,Fraction Affected,Bouvardin 0.3 uM + 1 Gy IR,0.837
same,Combination Index,Bouvardin 0.3 uM + 2 Gy IR,1.911
same,Fraction Affected,Bouvardin 0.3 uM + 2 Gy IR,0.826
same,Combination Index,Bouvardin 0.3 uM + 4 Gy IR,2.897
same,Fraction Affected,Bouvardin 0.3 uM + 4 Gy IR,0.8
same,Combination Index,Bouvardin 0.6 uM + 1 Gy IR,2.067
same,Fraction Affected,Bouvardin 0.6 uM + 1 Gy IR,0.85
same,Combination Index,Bouvardin 0.6 uM + 2 Gy IR,2.148
same,Fraction Affected,Bouvardin 0.6 uM + 2 Gy IR,0.849
same,Combination Index,Bouvardin 0.6 uM + 4 Gy IR,4.862
same,Fraction Affected,Bouvardin 0.6 uM + 4 Gy IR,0.797
same,Combination Index,Bouvardin 1 uM + 1 Gy IR,4.673
same,Fraction Affected,Bouvardin 1 uM + 1 Gy IR,0.165
same,Combination Index,Bouvardin 1 uM + 2 Gy IR,1.605
same,Fraction Affected,Bouvardin 1 uM + 2 Gy IR,0.292
same,Combination Index,Bouvardin 1 uM + 4 Gy IR,0.989
same,Fraction Affected,Bouvardin 1 uM + 4 Gy IR,0.478
